Laboratory results published in patent publication US20240050513A1, “COMPOSITION FOR PREVENTING, AMELIORATING, OR TREATING DISEASE CAUSED BY PROTEIN NITRATION […] WITH TERMINAL TYROSINE AS EFFECTIVE COMPONENT” (INDUSTRY-ACADEMIC COOPERATION FOUNDATION GYEONGSANG …, priority 2021, published 2024).
Where two headings read alike, the source gives them in different places.

Assays:
[1] = system: chronic immobilization stress C57BL/6 mice; assay: Cognitive function (ORT/OLT) in chronic immobilization stress model; format: in vivo; conditions: stress group, peptide-supplemented diet vs normal diet
Protocol: To analyze the long-term memory capacity of animals following the peptide diet of the present invention, both the object recognition test (ORT) and object location recognition test (OLT) were conducted (FIG. 1). The tests consisted of three phases: habituation, familiarization, and test. During the habituation phase, the animals were acclimated to the testing apparatus for 10 minutes per day over two days. On the third day at the familiarization phase, the animals were allowed to explore two identical objects for 10 minutes. Subsequently, on the fourth day at the test phase, one of the objects was replaced with a novel object, and the animals were allowed to explore for 10 minutes, with result recorded during the initial 5 minutes was used as test data. The object recognition test (ORT) index was calculated using the following formula.
Discrimination index=(N−F)/(N+F) • N: Time spent for exploring new object • F: Time spent for exploring familiar object
After 24 hours of performing the ORT, the location of the familiar object was changed, and the animals were allowed to explore for 5 minutes. During the total exploration time, the ratio of time spent exploring the object with a changed location was calculated to determine the object location recognition test (OLT) index.
A total of 28 seven-week-old male C57BL/6 mice were divided into two groups: a control group and a stress group. […]

[2] = system: glutamatergic neurons of 3xTG-vGluT2-Cre::tdTomato mice; assay: sEPSC of glutamatergic neurons in mPFC of fluorescent labeled Alzheimer's disease model; format: in vivo, mouse; conditions: 1xYQ diet from 2 months, measured at 6 to 8 months
Protocol: At two months of age, 3xTG-vGluT2-Cre::tdTomato mice were fed with diet supplemented with tyrosine-containing peptide (1xYQ). At 6 to 8 months of age, the spontaneous excitatory postsynaptic current (sEPSC) was measured to evaluate the activity of glutamatergic neurons. For recording membrane currents, a 200 μm-thick brain cross-section was placed in a recording chamber filled with artificial cerebrospinal fluid at a rate of 1.5 to 2 ml/min, and, under a holding potential of −70 mV, whole-cell voltage clamp recordings were obtained from visually identified glutamatergic neurons in the medial prefrontal cortex (mPFC). Glutamatergic currents were isolated by the addition of picrotoxin (100 μM). All recordings were performed at 30±2° C., and, as the pipette solution, a solution containing 30 mM KCl, 5 mM CaCl2, 10 mM EGTA, 10 mM HEPES, 2 mM MgATP, 0.5 mM Na2GTP, and 5 mM phosphocreatine was used.

catalase (CAT) = assay: Hippocampal catalase activity in ischemic stroke model; format: in vivo, Mongolian gerbils; conditions: hippocampus, 200 mg/kg i.p. once, twenty-four hours after reperfusion
Protocol: Three-month-old male Mongolian gerbils were induced with general anesthesia using 3% isoflurane and the anesthesia was maintained with 2.5% isoflurane gas. After sterilizing the neck area, a midline incision was made to expose both common carotid arteries, and microvessel clip was used to block the blood flow for 5 minutes, inducing cerebral ischemia to simulate a stroke. During the application of the microvessel clip, the body temperature was maintained at 37.0±0.5° C., and animals undergoing sham operation were used as the control group.
After inducing ischemia, the animal was, under reperfusion, intraperitoneally administered once with YQ peptide at a dose of 200 mg/kg. Two hours or twenty-four hours after the reperfusion, the animal was anesthetized with avertin. Then, the skull was quickly opened, and the brain was rapidly removed. The hippocampal tissue was collected and rapidly frozen in liquid nitrogen, then stored in a deep freezer. Subsequently, the activities of superoxide dismutase (SOD) and catalase (CAT) were measured by using SOD colorimetric activity kit and CAT colorimetric activity kit, respectively.

[3] = system: high-fat diet C57BL/6 mice
Protocol: Three-week-old male C57BL/6 mice were purchased from Koatech and housed in the animal facility under controlled conditions of temperature (22±2° C.), humidity (50±5%), and a 12-hour light-dark cycle. Two mice were housed per a cage. […] The mice were maintained on their respective diets for a duration of 17 weeks.
With an interval of one week, the body weight and food intake of each animal were measured. Additionally, at 1, 5, or 8 weeks after the start of the experiment, fasting blood glucose level was measured using an Accu-Check glucose meter.
At 15 weeks after the start of the test, a glucose tolerance test (GTT) was performed, and at 16 weeks, an insulin tolerance test (ITT) was carried out. For the
GTT, after a 12-hour fasting period, a glucose solution of 2 g/kg was administered through intraperitoneal injection, and blood samples were collected from the vein at 0, 20, 60, 90, and 120 minutes to measure blood glucose level. For the ITT, after a 6-hour fasting period, insulin at a dose of 0.75 U/kg was administered through intraperitoneal injection, and blood samples were collected from the vein at 0, 15, 30, 60, and 120 minutes to measure blood glucose level.
The urine volume (ml) was measured by collecting urine from the metabolic cages over a 16-hour period, and the fat mass was measured for each mouse using the EchoMRITM device and expressed as a percentage (%) of body weight.
The insulin concentration was measured using an ELISA kit (Crystal Chem, Ultra-Sensitive Mouse Insulin ELISA Kit), and the alanine aminotransferase (ALT) concentration was measured using an assay kit (IVD Lab Co., ChemiLab GPT (ALT) assay kit). Additionally, the concentration of reactive oxygen species/reactive nitrogen species (ROS/RNS) was measured by using an assay kit (Cell Biolabs, Inc., OxiSelect™ In Vitro ROS/RNS Assay Kit).
After anesthesia, liver tissues were dissected and rapidly frozen in liquid nitrogen. Some tissues were fixed in 10% formalin, and 5 μm-thick tissue slides were prepared from paraffin blocks. The tissues were then stained with H&E (hematoxylin and eosin) and observed under a microscope (Olympus, CKX41) for imaging.
A decrease in insulin receptor in muscles in metabolic disorders reduces the sensitivity to insulin signal, thus limiting the ability to utilize glucose in the muscles to cause sarcopenia. The liver tissue was homogenized in RIPA buffer, and protein quantification was performed using the BCA method. Western blot analysis was then conducted using an anti-insulin receptor-beta (IRβ) antibody.
It is known that a decrease in renal function leads to an increase in the concentration of albumin and a decrease in creatinine in urine. Therefore, the albumin and creatinine levels in urine were measured using mouse albumin ELISA kit (Abcam) and creatinine assay kit (Abcam), respectively, in each test animal. The albumin/creatinine ratio was then calculated. Additionally, 10 μL of blood plasma or 40 mg of homogenized liver tissue were subjected to centrifugation at 10,000 g for 10 minutes, and the supernatant was separated to measure the triglycerides (TG) level in plasma or liver by using a triglyceride measurement kit (Cayman).

With tyrosine-glutamine [YQ] as the substance, how does the cognitive function [1] read?
Its cognitive function is “enhanced cognitive function”.

And the “glutamatergic neuronal activity (sEPSC)” value [2]?
The value was “increased”.

What about the CAT activity (catalase (CAT)) of the same substance?
Its CAT activity is “activity increases”.

What about the “fasting blood glucose level” value ([3]; HFD+1xYQ vs HFD, 1, 5 or 8 weeks) of the same substance?
The value was “decrease in blood glucose level”.

And the body weight ([3]; HFD+3xYQ vs HFD)?
Its body weight is “lower body weight”.

What about the fat mass ([3]; HFD+3xYQ vs HFD) of the same substance?
The fat mass was “decrease”.

And the “fasting blood glucose level” value ([3]; HFD+3xYQ vs HFD, 1, 5 or 8 weeks)?
The value was “decrease in blood glucose level”.

What about the “blood glucose level, glucose tolerance test (GTT)” value ([3]; HFD+3xYQ vs HFD, 15 weeks) of the same substance?
The value was “decrease in blood glucose level”.

And the urine volume ([3]; HFD+3xYQ vs HFD, 16-hour collection)?
Its urine volume is “decrease”.

And the “blood glucose level, insulin tolerance test (ITT)” value ([3]; HFD+3xYQ vs HFD, 16 weeks)?
The value was “decrease in blood glucose level”.

And the “expression level of IRβ” value ([3]; liver tissue, Western blot, HFD+3xYQ vs HFD)?
The value was “increase”.
